Source: PubChem BioAssay (NCI)
Several values for one entry are separate records, joined by “and”; a condition that tells them apart may be missing. Equal entries are not always repeated.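 Following 48 hours of exposure in 96-well plates, responses at five concentrations were used to interpolate endpoints linearly. At the GI50, growth is halved. TGI: total growth inhibition.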

Assays:
Experiment in all cases: NCI tumour cell line growth inhibition, 48 h
NCI-H226 lung = tested on: NCI-H226 lung
BT-549 breast = tested on: BT-549 breast
CAKI-1 renal = tested on: CAKI-1 renal
RPMI-8226 leukemia = tested on: RPMI-8226 leukemia
MDA-MB-435 = tested on: MDA-MB-435
SN12C renal = tested on: SN12C renal
OVCAR-4 ovarian = tested on: OVCAR-4 ovarian
MOLT-4 leukemia = tested on: MOLT-4 leukemia
NCI-H522 lung = tested on: NCI-H522 lung
MDA-N = tested on: MDA-N

SMILES | TGI (NCI-H226 lung) | TGI (BT-549 breast) | TGI (CAKI-1 renal) | TGI (RPMI-8226 leukemia) | TGI (MDA-MB-435) | TGI (SN12C renal) | TGI (OVCAR-4 ovarian) | TGI (MOLT-4 leukemia) | TGI (NCI-H522 lung) | TGI (MDA-N) | GI50 (NCI-H522 lung) | GI50 (NCI-H226 lung) | GI50 (BT-549 breast) | GI50 (CAKI-1 renal) | GI50 (RPMI-8226 leukemia) | GI50 (MDA-MB-435) | GI50 (MOLT-4 leukemia) | GI50 (SN12C renal) | GI50 (OVCAR-4 ovarian)
Cc1[nH]c(=O)[nH]c(=S)c1C(=O)Nc1cccc2cc3ccccc3cc12 | > 100 µM | > 100 µM | > 100 µM | > 100 µM | > 100 µM | > 100 µM | > 100 µM | > 100 µM |  |  |  |  |  |  |  |  |  |  | 
COC1(OC)c2no[n+]([O-])c2C(OC)(OC)c2c1no[n+]2[O-] | 64 µM |  | 92.9 µM | 87.8 µM | 36.2 µM | 54 µM | > 100 µM | > 100 µM | 47.5 µM | 62.8 µM |  |  |  |  |  |  |  |  | 
O=C1C=CC(=O)c2c(O)c(N3CCN(CCOCCO)CC3)c(Cl)c(O)c21 | 4.68 µM [middle of 4 runs] | 2.11 µM and 1.49 µM and 3.91 µM |  | 1.01 µM [middle of 4 runs] | 0.907 µM and 0.486 µM | 2.07 µM [middle of 4 runs] |  | 0.837 µM and 0.175 µM | 1.19 µM and 0.352 µM |  | 0.313 µM | 2.69 µM | 0.722 µM and 0.422 µM and 2.27 µM | 456 nM [middle of 4 runs] | 277 nM [middle of 4 runs] | 0.197 µM | 0.097 µM and 0.0331 µM |  | 
COc1ccc2nc3n(c2c1)CCc1cc(OC)c(OC)cc1-3 | > 100 µM | 99.2 µM | > 100 µM |  | > 100 µM | > 100 µM | > 100 µM |  | > 100 µM | > 100 µM |  |  |  |  |  |  |  |  | 
CCC(CC(C)C)Nc1ccc(NC(CC)CC(C)C)cc1 (stereo not given) | 29.9 µM |  | > 100 µM | 18.5 µM | 40 µM | 32.2 µM | 26.8 µM | 44.5 µM | 15.1 µM |  | 3.82 µM | 15.3 µM |  | 40.2 µM | 3.85 µM | 18.2 µM | 17.8 µM | 16 µM | 13.9 µM
C#CCC1(C(=O)OCC)C(=O)c2ccccc2N(C)C1=O (stereo not given) | > 100 µM |  | > 100 µM | > 100 µM |  | > 100 µM |  | > 100 µM | 27.3 µM |  |  |  |  |  |  |  |  |  | 
CC1OC2OC3C(OCC(O)C3O)OC(=O)[C@]34CCC(C)(C)CC3C3=CCC5[C@@]6(C)C[C@H](O)[C@H](OC7OC(CO)C(O)C(O)C7OC7OCC(OC(=O)CC(C)(O)CC(=O)OC1C(OC1OC(CO)C(O)C(O)C1O)C2O)C(O)C7O)[C@@](C)(CO)C6CC[C@@]5(C)[C@]3(C)CC4 (stereo not given in full) | 34 µM | 21.1 µM | 16.1 µM | 25.2 µM | 11.4 µM | 23.3 µM | 17.1 µM | 21.3 µM | 22.5 µM | 7.76 µM |  |  |  |  |  |  |  |  | 
NCCC1CN(C(=O)OCc2ccccc2)c2ccccc21 (stereo not given) | 26.8 µM | 40.4 µM | > 50.7 µM | 46.6 µM | 30 µM | 27.3 µM | > 55.8 µM | 52.1 µM | 28.8 µM | 26.6 µM |  |  |  |  |  |  |  |  | 
COC(=O)C1=C(O)C(C(=O)OC)[C@]2(O)[C@H](C(=O)OC)[C@H]1C[C@@H](c1ccc([N+](=O)[O-])cc1)[C@H]2C(=O)OC (stereo not given in full) | 65.1 µM | 39.7 µM | > 100 µM |  | > 100 µM | 47.7 µM | > 100 µM | 81.6 µM | 8.58 µM | 35.6 µM |  |  |  |  |  |  |  |  | 
CCN(CC)c1nc(N(C)C)c2ccccc2n1 | 69.3 µM | > 100 µM | > 100 µM | 40.6 µM | > 100 µM | > 100 µM | > 100 µM | 30.3 µM | 96.9 µM | 59.9 µM |  |  |  |  |  |  |  |  | 
C=C(C)[C@@H]1CC[C@]2(C(=O)O)CC[C@]3(C)[C@H](CCC4[C@@]5(C)CC[C@H](C(=O)/C=C/c6ccc(O)c(O)c6)C(C)(C)[C@@H]5CC[C@]43C)[C@@H]12 (stereo not given in full) |  | > 100 µM | 16.8 µM |  | 16.7 µM |  | > 100 µM | > 100 µM |  | 15.9 µM |  |  |  |  |  |  |  |  | 
Cc1ccc(-c2n[nH]c(=O)n2/N=C\c2ccccc2)cc1 | > 100 µM | > 73.8 µM | > 100 µM | > 100 µM | > 100 µM | > 90.4 µM | > 100 µM | > 100 µM | > 100 µM | > 93.9 µM |  |  |  |  |  |  |  |  | 
COC(=O)c1c(C)nc(C)c(NO)c1-c1ccccc1C(F)(F)F | 76.7 µM | 30.8 µM | 43.3 µM | 70.6 µM | 37.6 µM | 62.4 µM | 39.2 µM | > 100 µM | 33.1 µM | 30.5 µM |  |  |  |  |  |  |  |  | 
O=C1C=CC(=O)c2c(Cl)ccc(O)c21 | > 100 µM |  | 16.1 µM | 23.4 µM |  | 39 µM | 32.5 µM | 23.2 µM | 26.8 µM |  |  |  |  |  |  |  |  |  | 
CC(C)OC1OC(CO)C(O)CC1n1cc(F)c(=O)[nH]c1=O (stereo not given) | > 100 µM | > 100 µM | > 100 µM | > 100 µM | > 100 µM | > 100 µM | > 100 µM |  | 37.8 µM | > 100 µM |  |  |  |  |  |  |  |  | 
C(/Cc1ccc2c(c1)OCO2)=N\NC1=NCCCN1 | > 100 µM | > 100 µM |  | > 100 µM | > 100 µM | > 100 µM | > 100 µM | 55.2 µM | > 100 µM | > 100 µM |  |  |  |  |  |  |  |  | 
COC(=O)c1c(-c2ccc(Cl)cc2)cc2c3ccccc3n(C)c2c1C(=O)OC | > 100 µM | > 100 µM | > 100 µM |  | > 100 µM | > 100 µM | > 100 µM | > 100 µM | > 100 µM | > 100 µM |  |  |  |  |  |  |  |  | 
CC(C)(C)OC(=O)n1cc(C2CN(O)C(=O)C23CCC(=O)N3Cc2ccccc2)c2ccccc21 (stereo not given) | 62 µM |  | > 100 µM | 93.5 µM | > 100 µM | 81.8 µM | > 100 µM | > 100 µM | 31.7 µM | > 100 µM |  |  |  |  |  |  |  |  | 
CO[C@]1(CN2CCN3CCCC[C@@H]3C2)/C=C/C[C@H](C)[C@@H](C)S(=O)(=O)NC(=O)c2ccc3c(c2)N(C[C@@H]2CC[C@H]21)C[C@@]1(CCCc2cc(Cl)ccc21)CO3 |  |  | 4.24 µM | 41.8 µM | 2.42 µM | 3.08 µM | 6.61 µM | 2.1 µM | 1.93 µM |  | 0.37 µM |  |  | 1.79 µM | 0.0185 µM | 1.05 µM | 0.198 µM | 1.6 µM | 1.69 µM
COc1ccc(CCN2CCc3c(C)c(C#N)c4nc5ccccc5n4c32)cc1OC | 93.7 µM | 84.2 µM | > 100 µM |  | 45 µM | > 100 µM | > 100 µM |  | 57 µM | 43.1 µM |  |  |  |  |  |  |  |  | 
CSc1nc(NC(C)C)c2c(n1)Sc1nc3ccccc3n1C2O (stereo not given) |  | > 100 µM | > 100 µM | 12.5 µM | 5.02 µM | > 100 µM | > 100 µM | 14.1 µM | 24.7 µM | 11.9 µM |  |  |  |  |  |  |  |  | 
